Key:
Format in all cases: in vivo, human
[1] = test system: patients with type 2 diabetes mellitus; experiment: Clinical trial: evaluation of safety; conditions: CHP administration groups (3, 9, 15 mg of CHP+23 mg of zinc once a day, 12 weeks) vs placebo
Protocol: (§1) We conducted a clinical trial designed as randomized, placebo-controlled, double-blind, and two-way crossover on drug interaction in patients with type 2 diabetes mellitus. The clinical trial was conducted for 149 patients over a total of 16 weeks, in which the screening period was 2 weeks, the treatment period was 12 weeks, and the period of the evaluation of safety and follow-up was 2 weeks.
(§2) In the screening stage, 64 subjects were selected from 149 participants, and the subjects who met the selection criteria were fasted for 2 hours before and after breakfast each day and subjected to a 2-week evaluation process of measuring and recording blood glucose levels. In the treatment stage, capsules containing placebo or CHP with different doses were randomly administered to 64 selected subjects once a day for 12 consecutive weeks.
In the above experiment, a capsule containing CHP with a different dose or a placebo corresponding thereto was used, and each subject received a two-week dose (18 capsules=14+4) at one visit and was instructed to take 1 capsule before bedtime every day. In this case, the anti-diabetic drugs and other prescribed drugs currently being used were continuously taken. […]

[2] = Clinical trial: improvement of body mass index (BMI)
Protocol: as §1, §2
(§3) In the above experiment, a capsule containing CHP with a different dose or a placebo corresponding thereto was used, and each subject received a two-week dose (18 capsules=14+4) at one visit and was instructed to take 1 capsule before bedtime every day. In this case, the anti-diabetic drugs and other prescribed drugs currently being used were continuously taken. Each subject was assigned at the same rate as follows and administered with a placebo or a compound with a different dose, respectively. • Administration Group A: 3 mg of CHP+23 mg of zinc—16 subjects • Administration Group B: 9 mg of CHP+23 mg of zinc—16 subjects • Administration Group C: 15 mg of CHP+23 mg of zinc—16 subjects • Administration Group D: placebo (control)—16 subjects
(§4) The present inventors confirmed the improvement of body mass index (BMI) and the improvement of leptin resistance, and the results are shown in Tables 3 and 4.

[3] = Clinical trial: change in body weight over 12 weeks
Protocol: as §1, §2, §3
The present inventors observed the change in body weight of subjects through the 12-week experiment, and the results are shown in Table 2 and FIG. 2.

[4] = test system: glycated hemoglobin (HbA1c); experiment: Clinical trial: change in concentration of glycated hemoglobin (HbA1c) over 12 weeks
Protocol: as §1, §2, §3
The present inventors observed the change in concentration of HbA1c during the 12-week dosing period. Since the blood glucose level measured at one time point can change due to various factors, the change in glycated hemoglobin (HbA1c) was checked for the purpose of determining the pattern of long-term glycemic control, and the results are shown in Table 1 and FIG. 1.

[5] = test system: leptin; experiment: Clinical trial: plasma leptin level (leptin resistance)
Protocol: as §1, §2, §3, §4
Leptin is an appetite suppressing protein secreted from adipose cells, and is known as a hormone to act on the brain after being secreted from adipose tissue to suppress appetite and activate metabolism in the body, thereby reducing body weight. In the case of humans, the more obese people (the more adipose tissue), the higher the concentration of leptin in the blood. This indicates the resistance to leptin action.

[6] = Administration Group A: 3 mg of CHP+23 mg of zinc once a day
[7] = Administration Group A: 3 mg of CHP+23 mg of zinc once a day, Baseline (Week 0)
[8] = Administration Group A: 3 mg of CHP+23 mg of zinc once a day, Week 12
[9] = Administration Group B: 9 mg of CHP+23 mg of zinc once a day
[10] = Administration Group B: 9 mg of CHP+23 mg of zinc once a day, Baseline (Week 0)
[11] = Administration Group B: 9 mg of CHP+23 mg of zinc once a day, Week 12
[12] = Administration Group C: 15 mg of CHP+23 mg of zinc once a day
[13] = Administration Group C: 15 mg of CHP+23 mg of zinc once a day, Baseline (Week 0)
[14] = Administration Group C: 15 mg of CHP+23 mg of zinc once a day, Week 12
[15] = all patient groups receiving CHP (3, 9, 15 mg+23 mg of zinc), 12 weeks

O=C1NC(Cc2c[nH]cn2)C(=O)N2CCCC12 (centres unmarked) [CHP, cyclo(his-pro)]
side effects (evaluation of safety) [1]: mild and moderate side effects that are not related to the CHP were observed | Body mass index (BMI), Change Value (From Week 0 to Week 12), Average [2, 6]: −0.27 kg/m^2 | Body mass index (BMI), Average [2, 7]: 37.18 kg/m^2 | Body mass index (BMI), Average [2, 8]: 36.45 kg/m^2 | Body mass index (BMI), Change Value (From Week 0 to Week 12), Average [2, 9]: 0.16 kg/m^2 | Body mass index (BMI), Average [2, 10]: 36.29 kg/m^2 | Body mass index (BMI), Average [2, 11]: 36.59 kg/m^2 | Body mass index (BMI), Change Value (From Week 0 to Week 12), Average [2, 12]: −0.28 kg/m^2 | Body mass index (BMI), Average [2, 13]: 37.23 kg/m^2 | Body mass index (BMI), Average [2, 14]: 37.48 kg/m^2 | Body weight, Change Value (From Week 0 to Week 12), Average [3, 6]: -0.73 kg | Body weight, Average [3, 7]: 109.11 kg | Body weight, Average [3, 8]: 108.28 kg | Body weight, Average [3, 10]: 103.56 kg | Body weight, Average [3, 11]: 105.19 kg | Body weight, Change Value (From Week 0 to Week 12), Average [3, 12]: -0.92 kg | body weight over time (FIG. 2) [3, 12]: reduced consistently until week 12 | Body weight, Average [3, 13]: 103.94 kg | Body weight, Average [3, 14]: 104.12 kg | weight gain / body weight compared to the control [3, 15]: less than the control, or the body weight was reduced | HbA1c, Change Value (From Week 0 to Week 12), Average [4, 6]: −0.21% | level of HbA1c at week 12 versus Administration Group D (control) [4, 6]: lower than that of Administration Group D | HbA1c, Average ([4]; Administration Group A: 3 mg of CHP+23 mg of zinc once a day, Baseline (Week 0), type 2 diabetes patients): 8.25% | HbA1c, Average [4, 8]: 8.04% | HbA1c, Change Value (From Week 0 to Week 12), Average [4, 9]: −0.17% | level of HbA1c at week 12 versus Administration Group D (control) [4, 9]: lower than that of Administration Group D | HbA1c, Average [4, 10]: 8.06% | HbA1c, Average [4, 11]: 7.90% | HbA1c, Change Value (From Week 0 to Week 12), Average [4, 12]: −0.43% | level of HbA1c over time (FIG. 1) [4, 12]: reduced consistently until week 8 | HbA1c, Average [4, 13]: 8.49% | HbA1c, Average [4, 14]: 8.08% | level of HbA1c compared to the control [4, 15]: reduced compared to the control | Plasma leptin level, Change Value (From Week 0 to Week 12), Average [5, 6]: 0.59 | Plasma leptin level, Average [5, 7]: 10.93 | Plasma leptin level, Average [5, 8]: 9.66 | Plasma leptin level, Change Value (From Week 0 to Week 12), Average [5, 9]: −3.42 | plasma leptin level at week 12 compared to the reference value [5, 9]: reduced to a statistically significant level | Plasma leptin level, Average [5, 10]: 19.85 | Plasma leptin level, Average [5, 11]: 9.90 | Plasma leptin level, Change Value (From Week 0 to Week 12), Average [5, 12]: −3.39 | plasma leptin level at week 12 compared to the reference value [5, 12]: reduced to a statistically significant level | Plasma leptin level, Average [5, 13]: 12.93 | Plasma leptin level, Average [5, 14]: 10.59
